For one data set, the target named is T1, LaPhzM (Lysobacter antibioticus, UniProt A0A172J1V3).
T1 sequence (A0A172J1V3 1-341): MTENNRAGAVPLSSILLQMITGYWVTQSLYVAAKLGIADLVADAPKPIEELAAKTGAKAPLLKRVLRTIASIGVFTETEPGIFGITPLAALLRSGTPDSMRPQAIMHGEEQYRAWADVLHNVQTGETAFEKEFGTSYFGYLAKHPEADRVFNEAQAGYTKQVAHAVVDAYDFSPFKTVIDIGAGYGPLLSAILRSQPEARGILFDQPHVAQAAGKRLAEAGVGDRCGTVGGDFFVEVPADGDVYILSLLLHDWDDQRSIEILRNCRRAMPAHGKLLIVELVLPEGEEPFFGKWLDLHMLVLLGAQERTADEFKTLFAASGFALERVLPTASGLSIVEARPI
Description: X-ray crystal structure, […] Å. The class given is binding. Particulars: crystallised with SAM added; SAH found in cofactor site.

For another data set, the target named is T2, LaPhzNO1 (Lysobacter antibioticus, UniProt A0A172J1R7).
T2 sequence (A0A172J1R7 1-541): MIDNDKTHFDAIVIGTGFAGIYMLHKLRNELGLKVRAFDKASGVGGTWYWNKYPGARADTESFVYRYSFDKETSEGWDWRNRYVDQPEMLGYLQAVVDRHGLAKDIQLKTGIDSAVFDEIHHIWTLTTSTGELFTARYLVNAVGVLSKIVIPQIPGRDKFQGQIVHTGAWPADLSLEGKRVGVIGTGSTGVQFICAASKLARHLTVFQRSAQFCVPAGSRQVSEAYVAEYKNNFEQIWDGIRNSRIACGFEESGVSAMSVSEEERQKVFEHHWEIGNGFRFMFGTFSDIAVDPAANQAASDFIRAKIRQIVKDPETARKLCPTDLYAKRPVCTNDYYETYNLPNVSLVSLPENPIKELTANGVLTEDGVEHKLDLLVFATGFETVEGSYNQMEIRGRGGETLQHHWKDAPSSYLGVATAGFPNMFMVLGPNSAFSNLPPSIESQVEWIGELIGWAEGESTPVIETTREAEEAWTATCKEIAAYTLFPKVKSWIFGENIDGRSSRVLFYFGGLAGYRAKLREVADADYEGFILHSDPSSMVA
Briefly: HPLC / LC-MS product analysis, coupled with LaPhzS making DHP from PDC. The class given is biochemical. Particulars: NADPH, FAD; phosphate 100 mM pH 7.0, RT.

Substrate in data set [1]: COc1cccc2c1nc1cccc(O)c1[n+]2[O-]
Description: initial velocity by HPLC of SAH formed, Michaelis-Menten fit. The data set is classed as biochemical, Lysobacter antibioticus. Conditions: co-substrate SAM, Tris 50 mM, pH 7.8, RT.

For the molecule `Nc1ncnc2c1ncn2[C@@H]1O[C@H](CSCC[C@H](N)C(=O)O)[C@@H](O)[C@H]1O` [S-adenosyl-L-homocysteine], the “X-ray crystal structure, 1.42 Å” value at LaPhzM was “electron density around the cofactor binding site clearly indicates an S-adenosyl-L-homocysteine (SAH), instead of a SAM”.

`Oc1cccc2nc3c(O)cccc3nc12` [compound 7, 1,6-dihydroxyphenazine]: the “HPLC / LC-MS product analysis, coupled with LaPhzS making DHP from PDC” value at LaPhzNO1 is “When the second enzyme LaPhzNO1 and another cofactor NADPH were added in the reaction mixture”.

B1: LaPhzM (Lysobacter antibioticus) (protein)
chain: MTENNRAGAVPLSSILLQMITGYWVTQSLYVAAKLGIADLVADAPKPIEELAAKTGAKAPLLKRVLRTIASIGVFTETEPGIFGITPLAALLRSGTPDSMRPQAIMHGEEQYRAWADVLHNVQTGETAFEKEFGTSYFGYLAKHPEADRVFNEAQAGYTKQVAHAVVDAYDFSPFKTVIDIGAGYGPLLSAILRSQPEARGILFDQPHVAQAAGKRLAEAGVGDRCGTVGGDFFVEVPADGDVYILSLLLHDWDDQRSIEILRNCRRAMPAHGKLLIVELVLPEGEEPFFGKWLDLHMLVLLGAQERTADEFKTLFAASGFALERVLPTASGLSIVEARPI
The Km is the substrate concentration at which the rate is half of its maximum. In general, kcat refers to the maximal rate divided by the concentration of active sites. With B1, in data set [1], the Michaelis-Menten constant (Km) was 33.6 µM and the catalytic constant (kcat) is 0.01 s⁻¹.

(Values after paper PMC5910208 (ACS chemical biology, 2018).)
